Test results from PMC11912475 (Journal of Medicinal Chemistry, 2025).

Tests used:
[1] = target: GluN1-GluN2C NMDAR subtype (Homo sapiens, UniProt Q05586+Q14957); assay: FLIPR/Ca2+ assay, NMDAR GluN1-GluN2C subtype in CHO cells; format: cell-based; conditions: CHO cells, 10 μM L-glutamate and 10 μM glycine; n.d. = 50% of inhibition could not be reached at the highest concentration used
Protocol: (§1) These compounds were assessed for their effects on specific heterodimeric NMDAR subtypes stably overexpressed in Chinese Hamster Ovary (CHO) cells. The subtypes tested included GluN1-GluN2A, GluN1-GluN2B, GluN1-GluN2C, and GluN1-GluN2D. CHO cells expressing each of the four NMDAR subtypes were incubated with 10 μM L-glutamate, a concentration known to elicit maximal Ca^2+ influx, serving as the stimulus. Intracellular Ca^2+ levels were subsequently measured to determine the extent of NMDAR activation.
(§2) Assay buffer composition was 145 mM NaCl, 5 mM KCl, 2 mM CaCl2, 1 g/Liter D-(+)-glucose, and 20 mM HEPES (pH 7.3 adjusted with NaOH). Cells were plated at a density of 15.000/well in 384 black/clear bottom plates. […] Cells were kept at 30 °C in 5% CO2 incubator for 24 h. Cells were preloaded for 1 h with 2 μM Fluo-4 Ca^2+-sensitive probe, simultaneously with 2.5 mM probenecid, an inhibitor of nonspecific anion transport, and 500 μM ketamine to avoid cytotoxicity. […] Intracellular Ca^2+ level was monitored by FLIPR (excitation wavelength at 470–495 nm, emission wavelength at 515–575 nm) for 10 s before and 5 min after the addition of test items. All test items, including L-glutamate and glycine, were added simultaneously. […] FLIPR data were normalized as 100%, in the presence of 10 μM L-glutamate and 10 μM glycine, while as 0%, in the presence of assay buffer. […] Then, data were normalized by Excel 2013 (Microsoft Office) software, using wells added with 10 μM L-glutamate plus 10 μM glycine (column 23) as high control, and wells added with assay buffer only (column 24) as low control. To assess plate quality, Z′ calculations were performed in Excel. Z′ was calculated according to following equation: Z′ = 1–3(σh + σl)/|μh – μL| where μ and σ are the means and the standard deviations of the means of high (h) and low (l) controls, respectively. Compound concentration–response curves were plotted by Prism 8 GraphPad software, in the different experimental conditions (see Supporting Information). Data were analyzed using least-squares regression fitting, to fit data to a standard four parameters logistic equation using GraphPad Prism10. This regression fitting allowed the calculation of pIC50 and the corresponding SEM.

[2] = target: T1, Norepinephrine transporter NET (Homo sapiens, UniProt P23975); assay: Radioligand displacement binding assay, [125I]RTI-55, NET
T1 construct: host or cells: MDCK
T1 sequence (P23975 whole entry): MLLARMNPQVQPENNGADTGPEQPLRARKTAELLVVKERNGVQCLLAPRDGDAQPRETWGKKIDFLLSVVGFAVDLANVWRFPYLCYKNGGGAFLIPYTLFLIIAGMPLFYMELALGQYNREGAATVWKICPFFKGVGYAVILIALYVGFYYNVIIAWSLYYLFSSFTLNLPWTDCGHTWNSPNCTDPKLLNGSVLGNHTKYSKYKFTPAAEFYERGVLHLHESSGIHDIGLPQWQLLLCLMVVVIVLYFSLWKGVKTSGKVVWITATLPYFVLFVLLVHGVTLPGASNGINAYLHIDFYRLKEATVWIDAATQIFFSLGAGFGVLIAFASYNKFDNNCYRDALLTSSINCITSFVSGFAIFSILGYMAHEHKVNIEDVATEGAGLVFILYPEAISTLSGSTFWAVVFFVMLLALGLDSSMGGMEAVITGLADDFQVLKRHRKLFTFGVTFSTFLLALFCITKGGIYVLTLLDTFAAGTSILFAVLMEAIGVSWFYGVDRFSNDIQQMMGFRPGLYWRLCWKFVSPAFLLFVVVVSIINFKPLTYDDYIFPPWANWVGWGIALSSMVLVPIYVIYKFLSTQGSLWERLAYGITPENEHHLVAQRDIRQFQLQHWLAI

Muscarinic M5 = target: T2, Muscarinic M5 (Homo sapiens, UniProt P08912); assay: Radioligand displacement binding assay, [3H]N-methylscopolamine, M5
T2 construct: host or cells: CHO-K1
T2 sequence (P08912 1-532): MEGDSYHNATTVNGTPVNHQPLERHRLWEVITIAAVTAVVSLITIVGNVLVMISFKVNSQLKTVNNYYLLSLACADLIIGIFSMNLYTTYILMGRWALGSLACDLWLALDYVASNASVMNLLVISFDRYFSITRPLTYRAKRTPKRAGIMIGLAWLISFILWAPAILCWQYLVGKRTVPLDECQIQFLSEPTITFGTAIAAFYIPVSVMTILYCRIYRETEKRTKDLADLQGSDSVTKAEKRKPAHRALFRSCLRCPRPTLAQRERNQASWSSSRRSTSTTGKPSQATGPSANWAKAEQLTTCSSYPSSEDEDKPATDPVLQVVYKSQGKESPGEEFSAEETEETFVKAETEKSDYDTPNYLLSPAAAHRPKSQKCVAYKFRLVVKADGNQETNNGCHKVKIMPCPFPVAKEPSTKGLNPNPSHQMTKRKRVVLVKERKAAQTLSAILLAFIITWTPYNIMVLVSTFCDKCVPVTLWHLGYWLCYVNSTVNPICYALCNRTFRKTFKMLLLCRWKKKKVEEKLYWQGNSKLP

[3] = target: T3, GluN1-GluN2B NMDAR subtype (Homo sapiens, UniProt Q05586+Q13224); assay: FLIPR/Ca2+ assay, NMDAR GluN1-GluN2B subtype in CHO cells; format: cell-based; conditions: CHO cells, 10 μM L-glutamate and 10 μM glycine; n.d. = 50% of inhibition could not be reached at the highest concentration used
T3 construct: host or cells: NR1-2B-CHO cells, constitutive expression
Protocol: as §1, §2

Serotonin 5-HT2C = target: T4, Serotonin 5-HT2C (Homo sapiens, UniProt P28335); assay: Radioligand displacement binding assay, [3H]mesulergine, 5-HT2C
T4 construct: host or cells: CHO-K1
T4 sequence (P28335 33-458): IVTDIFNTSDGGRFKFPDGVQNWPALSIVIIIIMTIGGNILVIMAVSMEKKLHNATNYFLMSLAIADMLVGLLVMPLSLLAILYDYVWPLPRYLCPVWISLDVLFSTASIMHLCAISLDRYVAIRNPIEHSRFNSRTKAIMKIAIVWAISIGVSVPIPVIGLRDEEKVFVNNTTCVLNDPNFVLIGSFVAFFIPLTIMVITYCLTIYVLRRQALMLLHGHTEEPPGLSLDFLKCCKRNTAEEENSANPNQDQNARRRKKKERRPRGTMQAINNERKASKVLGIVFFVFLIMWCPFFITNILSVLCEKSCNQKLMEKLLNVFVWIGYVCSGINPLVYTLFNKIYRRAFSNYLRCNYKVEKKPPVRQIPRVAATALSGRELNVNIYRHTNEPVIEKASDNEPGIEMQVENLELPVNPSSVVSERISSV

Sigma σ1 = target: T5, Sigma σ1 (Homo sapiens, UniProt Q99720); assay: Radioligand displacement binding assay, [3H]pentazocine, sigma σ1
T5 construct: Sigma σ1; Source: Human Jurkat cells; host or cells: Jurkat
T5 sequence (Q99720 whole entry): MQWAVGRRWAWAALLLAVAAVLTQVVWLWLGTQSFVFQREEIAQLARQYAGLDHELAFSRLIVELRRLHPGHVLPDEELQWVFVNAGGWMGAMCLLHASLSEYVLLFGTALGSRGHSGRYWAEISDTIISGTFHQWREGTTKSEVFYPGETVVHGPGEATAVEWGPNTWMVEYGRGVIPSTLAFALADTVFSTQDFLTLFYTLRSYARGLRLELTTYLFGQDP

[4] = test system: Glutamate, NMDA, Phencyclidine binding site; assay: Radioligand displacement binding assay, [3H]TCP, NMDA; design: species or system Wistar rat
[5] = target: GluN1-GluN2D NMDAR subtype (Homo sapiens, UniProt O15399+Q05586); assay: FLIPR/Ca2+ assay, NMDAR GluN1-GluN2D subtype in CHO cells; format: cell-based; conditions: CHO cells, 10 μM L-glutamate and 10 μM glycine; n.d. = 50% of inhibition could not be reached at the highest concentration used
GluN1-GluN2D NMDAR subtype, sequence (O15399 28-1336, other chains not shown): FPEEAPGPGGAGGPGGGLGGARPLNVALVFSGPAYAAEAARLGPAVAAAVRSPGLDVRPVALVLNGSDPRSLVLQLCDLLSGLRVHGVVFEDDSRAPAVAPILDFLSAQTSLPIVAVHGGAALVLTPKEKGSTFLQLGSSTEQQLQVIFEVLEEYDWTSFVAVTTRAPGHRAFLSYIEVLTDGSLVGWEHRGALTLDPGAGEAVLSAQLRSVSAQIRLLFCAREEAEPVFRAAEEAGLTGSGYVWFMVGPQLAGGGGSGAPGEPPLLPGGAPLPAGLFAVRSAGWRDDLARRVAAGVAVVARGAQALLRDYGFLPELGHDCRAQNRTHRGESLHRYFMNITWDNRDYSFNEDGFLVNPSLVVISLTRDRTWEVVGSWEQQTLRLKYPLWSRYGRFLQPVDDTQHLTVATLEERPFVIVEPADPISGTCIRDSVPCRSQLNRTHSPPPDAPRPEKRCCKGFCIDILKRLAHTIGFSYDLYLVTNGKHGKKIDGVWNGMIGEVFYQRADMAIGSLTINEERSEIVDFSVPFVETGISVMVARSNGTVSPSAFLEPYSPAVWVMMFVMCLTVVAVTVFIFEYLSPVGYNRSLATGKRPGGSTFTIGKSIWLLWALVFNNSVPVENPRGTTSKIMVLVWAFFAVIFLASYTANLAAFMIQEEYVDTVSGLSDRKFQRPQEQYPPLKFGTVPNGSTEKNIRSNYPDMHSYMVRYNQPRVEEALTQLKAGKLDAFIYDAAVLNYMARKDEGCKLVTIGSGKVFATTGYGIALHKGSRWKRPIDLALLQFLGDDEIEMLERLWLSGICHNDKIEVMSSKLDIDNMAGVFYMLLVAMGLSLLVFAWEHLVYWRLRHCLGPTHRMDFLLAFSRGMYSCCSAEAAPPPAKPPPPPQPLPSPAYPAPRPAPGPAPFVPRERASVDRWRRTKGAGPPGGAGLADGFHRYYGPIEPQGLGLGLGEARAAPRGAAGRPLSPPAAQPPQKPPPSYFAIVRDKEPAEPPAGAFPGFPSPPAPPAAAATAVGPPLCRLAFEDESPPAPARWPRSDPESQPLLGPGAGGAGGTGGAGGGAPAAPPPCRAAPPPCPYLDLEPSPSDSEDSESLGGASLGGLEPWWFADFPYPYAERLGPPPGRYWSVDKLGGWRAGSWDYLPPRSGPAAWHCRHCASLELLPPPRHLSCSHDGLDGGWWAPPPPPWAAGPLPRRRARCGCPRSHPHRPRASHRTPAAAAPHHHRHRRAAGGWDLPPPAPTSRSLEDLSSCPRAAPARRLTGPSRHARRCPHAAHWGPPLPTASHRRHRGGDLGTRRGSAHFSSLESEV
Protocol: as §1, §2

Serotonin 5-HT1A = target: T6, Serotonin 5-HT1A (Homo sapiens, UniProt P08908); assay: Radioligand displacement binding assay, [3H]8-OH-DPAT, 5-HT1A
T6 construct: host or cells: CHO-K1
T6 sequence (P08908 1-422): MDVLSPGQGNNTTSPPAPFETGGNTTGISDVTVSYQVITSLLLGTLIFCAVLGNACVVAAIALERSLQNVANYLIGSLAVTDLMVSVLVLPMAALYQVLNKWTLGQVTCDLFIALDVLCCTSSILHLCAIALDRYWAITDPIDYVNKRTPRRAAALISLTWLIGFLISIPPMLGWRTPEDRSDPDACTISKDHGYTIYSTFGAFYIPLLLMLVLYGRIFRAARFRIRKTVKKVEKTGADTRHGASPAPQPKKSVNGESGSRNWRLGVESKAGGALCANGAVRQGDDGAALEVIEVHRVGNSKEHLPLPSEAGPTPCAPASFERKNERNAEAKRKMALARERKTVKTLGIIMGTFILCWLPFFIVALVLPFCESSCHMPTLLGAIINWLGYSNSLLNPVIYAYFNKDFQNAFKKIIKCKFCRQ

Histamine H1 = target: T7, Histamine H1 (Homo sapiens, UniProt P35367); assay: Radioligand displacement binding assay, [3H]pyrilamine, H1
T7 construct: host or cells: CHO-K1
T7 sequence (P35367 whole entry): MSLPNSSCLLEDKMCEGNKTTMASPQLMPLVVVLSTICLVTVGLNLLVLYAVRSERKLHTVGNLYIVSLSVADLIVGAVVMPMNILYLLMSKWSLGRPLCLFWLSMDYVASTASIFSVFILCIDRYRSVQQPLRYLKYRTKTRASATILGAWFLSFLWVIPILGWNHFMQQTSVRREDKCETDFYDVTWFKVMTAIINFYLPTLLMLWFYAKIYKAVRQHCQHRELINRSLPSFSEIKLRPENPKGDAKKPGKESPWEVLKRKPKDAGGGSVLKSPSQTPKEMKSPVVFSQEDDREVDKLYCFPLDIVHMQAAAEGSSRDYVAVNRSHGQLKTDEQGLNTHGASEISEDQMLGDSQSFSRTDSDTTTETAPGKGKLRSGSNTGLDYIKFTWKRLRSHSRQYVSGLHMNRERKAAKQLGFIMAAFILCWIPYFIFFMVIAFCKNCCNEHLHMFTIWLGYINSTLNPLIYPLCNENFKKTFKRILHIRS

[6] = target: GluN1-GluN2A NMDAR subtype (Homo sapiens, UniProt Q05586+Q12879); assay: FLIPR/Ca2+ assay, NMDAR GluN1-GluN2A subtype in CHO cells; format: cell-based; conditions: CHO cells, 10 μM L-glutamate and 10 μM glycine; n.d. = 50% of inhibition could not be reached at the highest concentration used
Protocol: as §1, §2

Serotonin 5-HT5A = target: T8, Serotonin 5-HT5A (Homo sapiens, UniProt P47898); assay: Radioligand displacement binding assay, [3H]LSD, 5-HT5A
T8 construct: host or cells: CHO-K1
T8 sequence (P47898 whole entry): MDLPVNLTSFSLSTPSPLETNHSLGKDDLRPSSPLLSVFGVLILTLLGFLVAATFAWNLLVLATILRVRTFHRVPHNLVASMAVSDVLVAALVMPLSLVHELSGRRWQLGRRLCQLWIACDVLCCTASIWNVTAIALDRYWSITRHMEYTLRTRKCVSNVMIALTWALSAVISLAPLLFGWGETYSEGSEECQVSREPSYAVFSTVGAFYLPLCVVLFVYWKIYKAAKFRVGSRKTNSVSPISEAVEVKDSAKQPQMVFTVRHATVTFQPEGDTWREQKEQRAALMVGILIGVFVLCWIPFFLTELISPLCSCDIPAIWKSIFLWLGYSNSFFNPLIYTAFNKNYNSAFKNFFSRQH

[7] = target: T9, Serotonin transporter SERT (Homo sapiens, UniProt P31645); assay: Radioligand displacement binding assay, [3H]paroxetine, SERT
T9 construct: host or cells: HEK-293
T9 sequence (P31645 whole entry): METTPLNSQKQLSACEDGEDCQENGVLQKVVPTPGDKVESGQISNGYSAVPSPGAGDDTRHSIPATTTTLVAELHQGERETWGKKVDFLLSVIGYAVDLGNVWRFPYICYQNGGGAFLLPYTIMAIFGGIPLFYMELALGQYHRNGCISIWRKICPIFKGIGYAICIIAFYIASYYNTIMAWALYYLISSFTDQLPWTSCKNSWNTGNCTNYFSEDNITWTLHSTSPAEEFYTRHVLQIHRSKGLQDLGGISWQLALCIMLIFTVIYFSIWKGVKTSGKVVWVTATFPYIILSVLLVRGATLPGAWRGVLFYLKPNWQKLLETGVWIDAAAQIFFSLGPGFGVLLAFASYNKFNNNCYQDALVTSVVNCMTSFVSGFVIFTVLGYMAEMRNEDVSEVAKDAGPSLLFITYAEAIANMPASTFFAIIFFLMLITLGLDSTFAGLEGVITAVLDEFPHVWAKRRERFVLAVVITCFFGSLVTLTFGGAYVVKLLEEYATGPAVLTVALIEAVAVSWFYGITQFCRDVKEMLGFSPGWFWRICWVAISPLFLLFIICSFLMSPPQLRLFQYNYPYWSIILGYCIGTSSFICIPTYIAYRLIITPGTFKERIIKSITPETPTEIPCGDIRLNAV

Serotonin 5-HT2A = target: T10, Serotonin 5-HT2A (Homo sapiens, UniProt P28223); assay: Radioligand displacement binding assay, [3H]ketanserin, 5-HT2A
T10 construct: host or cells: CHO-K1
T10 sequence (P28223 whole entry): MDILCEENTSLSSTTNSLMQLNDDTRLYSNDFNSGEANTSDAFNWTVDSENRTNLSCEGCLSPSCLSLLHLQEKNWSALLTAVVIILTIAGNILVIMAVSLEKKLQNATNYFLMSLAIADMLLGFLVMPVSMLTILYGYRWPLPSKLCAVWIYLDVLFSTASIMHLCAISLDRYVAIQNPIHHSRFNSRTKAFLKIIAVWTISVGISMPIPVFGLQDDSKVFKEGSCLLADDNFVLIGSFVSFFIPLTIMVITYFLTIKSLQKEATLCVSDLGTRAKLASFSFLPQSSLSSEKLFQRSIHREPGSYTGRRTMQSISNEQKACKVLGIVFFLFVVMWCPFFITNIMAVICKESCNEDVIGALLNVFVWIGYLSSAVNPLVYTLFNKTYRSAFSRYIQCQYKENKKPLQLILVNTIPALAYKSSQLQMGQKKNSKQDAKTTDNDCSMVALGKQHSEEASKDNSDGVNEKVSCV

Serotonin 5-HT7 = target: T11, Serotonin 5-HT7 (Homo sapiens, UniProt P34969); assay: Radioligand displacement binding assay, [3H]LSD, 5-HT7
T11 construct: host or cells: CHO-K1
T11 sequence (P34969 whole entry): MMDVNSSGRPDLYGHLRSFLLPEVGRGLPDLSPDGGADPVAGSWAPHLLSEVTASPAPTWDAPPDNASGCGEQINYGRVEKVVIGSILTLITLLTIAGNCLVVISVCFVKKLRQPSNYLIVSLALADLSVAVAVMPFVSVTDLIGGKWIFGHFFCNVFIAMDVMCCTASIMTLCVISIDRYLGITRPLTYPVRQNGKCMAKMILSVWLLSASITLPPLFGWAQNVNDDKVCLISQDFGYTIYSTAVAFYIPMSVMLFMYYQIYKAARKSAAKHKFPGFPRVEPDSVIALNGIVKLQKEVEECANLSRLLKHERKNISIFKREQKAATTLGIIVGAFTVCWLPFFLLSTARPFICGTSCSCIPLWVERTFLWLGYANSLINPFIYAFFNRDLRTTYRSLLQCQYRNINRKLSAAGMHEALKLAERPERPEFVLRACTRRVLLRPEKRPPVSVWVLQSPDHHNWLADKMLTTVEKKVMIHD

μ opioid receptor (MOP) = target: T12, μ opioid receptor (MOP) (Homo sapiens, UniProt P35372); assay: biochemical; format: binding; conditions: for inhibition at 0.3 µM / inhibition at 3 µM: read-out: % inhibition of binding, MOP
T12 construct: host or cells: CHO-K1
T12 sequence (P35372 whole entry): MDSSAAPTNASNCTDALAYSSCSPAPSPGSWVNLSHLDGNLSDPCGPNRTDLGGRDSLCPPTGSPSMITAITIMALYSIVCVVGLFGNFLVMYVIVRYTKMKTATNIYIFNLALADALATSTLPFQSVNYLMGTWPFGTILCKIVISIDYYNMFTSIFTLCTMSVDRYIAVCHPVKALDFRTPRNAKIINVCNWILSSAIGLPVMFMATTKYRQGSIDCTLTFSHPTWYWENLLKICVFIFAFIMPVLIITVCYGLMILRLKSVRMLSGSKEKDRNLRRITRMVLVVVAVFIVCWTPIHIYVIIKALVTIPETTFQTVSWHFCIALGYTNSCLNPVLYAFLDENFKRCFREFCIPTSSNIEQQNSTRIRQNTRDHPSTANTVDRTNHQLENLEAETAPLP

CC[C@H](O)C(C[C@@H](C)N)(c1ccccc1)c1ccccc1 [(3S,6R)-DNML, (3S,6R)-6-amino-4,4-diphenylheptan-3-ol]
pIC50 (mean ± SEM) GluN1-GluN2C [1]: 4.6 ± 0.038
inhibition at 1 µM [2]: 0%
inhibition at 10 µM [2]: 22%
inhibition at 1 µM (Muscarinic M5): 12%
inhibition at 10 µM (Muscarinic M5): 39%
pIC50 (mean ± SEM) GluN1-GluN2B [3]: 4.4 ± 0.042
inhibition at 0.3 µM (Serotonin 5-HT2C): 9%
inhibition at 3 µM (Serotonin 5-HT2C): 27%
inhibition at 0.3 µM (Sigma σ1): -4%
inhibition at 3 µM (Sigma σ1): 18%
% inhibition of binding, NMDA ([4]; 1 μM): 8%
% inhibition of binding, NMDA ([4]; 10 μM): 38%
pIC50 (mean ± SEM) GluN1-GluN2D [5]: 4.7 ± 0.061
inhibition at 0.3 µM (Serotonin 5-HT1A): -11%
inhibition at 3 µM (Serotonin 5-HT1A): -1%
inhibition at 10 µM (Histamine H1): 15%
inhibition at 30 µM (Histamine H1): 28%
pIC50 (mean ± SEM) GluN1-GluN2A [6]: 4.5 ± 0.031
inhibition at 1 µM (Serotonin 5-HT5A): -1%
inhibition at 10 µM (Serotonin 5-HT5A): 11%
inhibition at 1 µM [7]: 15%
inhibition at 10 µM ([7]; 10 μM): 36%
inhibition at 0.3 µM (Serotonin 5-HT2A): 9%
inhibition at 3 µM (Serotonin 5-HT2A): 10%
inhibition at 1 µM (Serotonin 5-HT7): 8%
inhibition at 10 µM (Serotonin 5-HT7): 5%
inhibition at 0.3 µM (μ opioid receptor (MOP)): 9%
inhibition at 3 µM (μ opioid receptor (MOP)): 23%

CC[C@H](O)C(C[C@@H](C)NC)(c1ccccc1)c1ccccc1 [(3S,6R)-NML, (3S,6R)-6-(methylamino)-4,4-diphenylheptan-3-ol]
pIC50 (mean ± SEM) GluN1-GluN2C [1]: 5.0 ± 0.049
inhibition at 1 µM [2]: 4%
inhibition at 10 µM [2]: 9%
inhibition at 1 µM (Muscarinic M5): 21%
inhibition at 10 µM (Muscarinic M5): 74%
pIC50 (mean ± SEM) GluN1-GluN2B [3]: 4.6 ± 0.047
inhibition at 0.3 µM (Serotonin 5-HT2C): 15%
inhibition at 3 µM (Serotonin 5-HT2C): 68%
inhibition at 0.3 µM (Sigma σ1): -1%
inhibition at 3 µM (Sigma σ1): 26%
% inhibition of binding, NMDA ([4]; 1 μM): -5%
% inhibition of binding, NMDA ([4]; 10 μM): 51%
pKi (mean ± SEM) [3H]TCP, NMDA ([4]; Wistar rat cerebral cortex, 4.0 nM [3H]TCP): 5.54 ± 0.09
pIC50 (mean ± SEM) GluN1-GluN2D [5]: 5.0 ± 0.058
inhibition at 0.3 µM (Serotonin 5-HT1A): -1%
inhibition at 3 µM (Serotonin 5-HT1A): -4%
inhibition at 10 µM (Histamine H1): 7%
inhibition at 30 µM (Histamine H1): 27%
pIC50 (mean ± SEM) GluN1-GluN2A [6]: 4.8 ± 0.050
inhibition at 1 µM (Serotonin 5-HT5A): 4%
inhibition at 10 µM (Serotonin 5-HT5A): 42%
inhibition at 1 µM [7]: 10%
% inhibition of binding, SERT ([7]; 10 μM): displaced
inhibition at 10 µM ([7]; 10 μM): 61%
inhibition at 0.3 µM (Serotonin 5-HT2A): -3%
inhibition at 3 µM (Serotonin 5-HT2A): 11%
inhibition at 1 µM (Serotonin 5-HT7): 11%
inhibition at 10 µM (Serotonin 5-HT7): 7%
pKi (mean ± SEM) [3H]diprenorphine, MOP (μ opioid receptor (MOP)): 5.55 ± 0.17
inhibition at 0.3 µM (μ opioid receptor (MOP)): 2%
inhibition at 3 µM (μ opioid receptor (MOP)): 26%
